Assay results taken from patent publication EP0626016B1, “[…] […]” (BRITISH TECHNOLOGY GROUP LIMITED, priority 1992, dated 1993).

What was measured:
Assay type in all cases: biochemical, horseradish
[1] = biological target: T1, HRP (Armoracia rusticana, UniProt P00433); experiment: Enhanced chemiluminescent anti-oxidant assay using PBBA (Example 6)
T1 construct: purchased Sigma Chemical Co
T1 sequence (P00433 31-338): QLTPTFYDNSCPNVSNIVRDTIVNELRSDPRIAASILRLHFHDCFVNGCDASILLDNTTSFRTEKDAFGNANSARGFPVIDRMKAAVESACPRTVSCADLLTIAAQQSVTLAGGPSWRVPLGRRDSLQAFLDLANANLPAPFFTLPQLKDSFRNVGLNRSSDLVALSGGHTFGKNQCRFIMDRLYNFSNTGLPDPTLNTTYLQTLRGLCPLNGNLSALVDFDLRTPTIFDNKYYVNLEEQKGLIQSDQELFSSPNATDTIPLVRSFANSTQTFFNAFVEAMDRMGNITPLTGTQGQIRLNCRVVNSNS
Experimental: The luminol-peroxide reagent (100µl), PBBA (40µl, 1:100 dilution of 1 mg/ml) and HRP (10µl, 1:50,000 dilution of 1mg/ml stock) were mixed together and the light emission measured for 25 minutes. A sample of human serum (2µl, 1:10 dilution in 0.1 mol/l Tris buffer, pH 8.6) was added and the light emission measured for a further 75 minutes.

[2] = system: HRP Type VIII; experiment: PBBA enhancement with different peroxidase enzymes (Example 4)
Experimental: Stock solutions (1mg/ml in 0.1mol/l Tris buffer, pH 8.6) of horseradish peroxidase Type VII, Type VIII and Arthromyces ramosus peroxidase (Sigma) were prepared. The luminol-hydrogen peroxide reagent was prepared as described previously. Luminol-hydrogen peroxide reagent (100µl, 1:10 dilution), either 40µl of PBBA (0.01mg/ml in 0.1mol/l Tris buffer, pH 8.6) or as a control, 40µl of Tris buffer (0.1mol/l, pH 8.6), and 10µl of HRP Type VII (1:50,000 dilution, 2ng) were added to a cuvette. The reagents were mixed and the light emission was recorded after 5 minutes using a Berthold Biolumat LB9500C.
The above experiment was repeated and the HRP Type VII was replaced by HRP Type VIII (2ng) or Arthromyces ramosus peroxidase (20pg).

[3] = biological target: T2, HRP Type VIA (Armoracia rusticana, UniProt P00433); experiment: Effect of PBBA amount on the luminol or isoluminol-H2O2-HRP chemiluminescent reaction (Example 1, part 1); conditions: for Signal (no HRP) / Signal (with HRP): after 5 minutes
T2 sequence (P00433 31-338): T1 sequence (P00433 31-338)
Experimental: PBBA was added in various concentrations (range 0.05µg to 0.5µg) to a luminol-H2O2 reaction in the presence and absence of HRP. […] These two solutions were combined and protected from light. The luminol-hydrogen peroxide reagent (100µl of a 1:10 dilution) was added to a cuvette together with either 10µl of HRP Type VI A (HRP, Sigma Chemical Co., 1:50,000 dilution) or as a control 10µl of Tris Buffer (0.1mol/l, pH 8.6), and various amounts of PBBA (Aldrich Chemical Co.), range 0.05µg-0.5µg in 0.1mol/l Tris, pH 8.6). The reagents were mixed and the light emission recorded after 5 minutes on a Berthold Biolumat LB9500C.
This experiment was repeated, replacing the luminol with isoluminol. […]

[4] = biological target: T1, HRP; experiment: Effect of fixed PBBA on light output with varying amounts of HRP (Example 1, part 2); conditions: for Signal (with PBBA): 40µl of PBBA 0.01mg/ml, after 5 minutes; for Signal: Background ratio: with PBBA
Experimental: The above experiment was repeated this time keeping the amount of PBBA enhancer fixed and varying the amount of HRP. The reagents used were 100µl of luminol-hydrogen peroxide, either (a) 40µl of PBBA (0.01mg/ml in 0.lmol/l Tris buffer, pH 8.6) or (b) as a control, 40µl of Tris buffer (0.1mol/l, pH 8.6) and various amounts of HRP (range 5µl to 40µl of 1:50,000 dilution of a lmg/ml stock solution).
The reagents were mixed and light output recorded after 5 minutes on a Berthold Biolumat LB9500C. […] An improved signal:background ratio is shown by comparing results with HRP present with the zero HRP results.

Light units ([1]; Time 0 minutes, before serum): 5
Light units ([1]; Time 10 minutes, before serum): 16
Light units ([1]; Time 20 minutes, before serum): 68
Light units ([1]; Time 25 minutes, serum added): 88
Light units ([1]; Time 26 minutes, after human serum added): 3
Light units ([1]; Time 30 minutes, after human serum added): 3
Light units ([1]; Time 50 minutes, after human serum added): 5
Light units ([1]; Time 60 minutes, after human serum added): 15
Light units ([1]; Time 70 minutes, after human serum added): 49
Light units ([1]; Time 80 minutes, after human serum added): 60
Light units ([1]; Time 90 minutes, after human serum added): 81
Light units ([1]; Time 100 minutes, after human serum added): 90
lag after which the light emission returns to its original level ([1]; after addition of human serum (2µl, 1:10 dilution)): 34 min
Signal Reagent with PBBA ([2]; HRP Type VIII 2ng, 40µl of PBBA 0.01mg/ml, after 5 minutes): 156,204
Signal: Background ([2]; HRP Type VIII, with PBBA): 5.6
light emission in the luminol-HRP-peroxidase reaction ([3]; Column (a), result in words): enhances the light emission
Signal: Background ratio ([3]; Isoluminol, PBBA 0.05 µg): 2.1
Signal (no HRP) ([3]; Isoluminol, PBBA 0.05 µg): 7664
Signal (with HRP) ([3]; Isoluminol, PBBA 0.05 µg): 15,772
Signal: Background ratio ([3]; Isoluminol, PBBA 0.1 µg): 2.7
Signal (no HRP) ([3]; Isoluminol, PBBA 0.1 µg): 6114
Signal (with HRP) ([3]; Isoluminol, PBBA 0.1 µg): 16,553
Signal: Background ratio ([3]; Isoluminol, PBBA 0.2 µg): 11.9
Signal (no HRP) ([3]; Isoluminol, PBBA 0.2 µg): 5736
Signal (with HRP) ([3]; Isoluminol, PBBA 0.2 µg): 68,282
Signal: Background ratio ([3]; Isoluminol, PBBA 0.3 µg): 110.4
Signal (no HRP) ([3]; Isoluminol, PBBA 0.3 µg): 5613
Signal (with HRP) ([3]; Isoluminol, PBBA 0.3 µg): 619,880
Signal: Background ratio ([3]; Isoluminol, PBBA 0.4 µg): 147.0
Signal (no HRP) ([3]; Isoluminol, PBBA 0.4 µg): 5278
Signal (with HRP) ([3]; Isoluminol, PBBA 0.4 µg): 775,965
Signal: Background ratio ([3]; Luminol, PBBA 0.05 µg): 6.1
Signal (no HRP) ([3]; Luminol, PBBA 0.05 µg): 16,556
Signal (with HRP) ([3]; Luminol, PBBA 0.05 µg): 101,227
Signal: Background ratio ([3]; Luminol, PBBA 0.1 µg): 6.7
Signal (no HRP) ([3]; Luminol, PBBA 0.1 µg): 16,065
Signal (with HRP) ([3]; Luminol, PBBA 0.1 µg): 108,213
Signal: Background ratio ([3]; Luminol, PBBA 0.2 µg): 8.1
Signal (no HRP) ([3]; Luminol, PBBA 0.2 µg): 13,890
Signal (with HRP) ([3]; Luminol, PBBA 0.2 µg): 112,644
Signal: Background ratio ([3]; Luminol, PBBA 0.3 µg): 11.2
Signal (no HRP) ([3]; Luminol, PBBA 0.3 µg): 10,899
Signal (with HRP) ([3]; Luminol, PBBA 0.3 µg): 122,116
Signal: Background ratio ([3]; Luminol, PBBA 0.4 µg): 12.5
Signal (no HRP) ([3]; Luminol, PBBA 0.4 µg): 10,706
Signal (with HRP) ([3]; Luminol, PBBA 0.4 µg): 133,401
Signal: Background ratio ([3]; Luminol, PBBA 0.5 µg): 16.9
Signal (no HRP) ([3]; Luminol, PBBA 0.5 µg): 8,963
Signal (with HRP) ([3]; Luminol, PBBA 0.5 µg): 151,572
Signal (with PBBA) ([4]; HRP 0 pg): 9,125
Signal (with PBBA) ([4]; HRP 100 pg): 15,861
Signal: Background ratio ([4]; HRP 100 pg): 1.7
Signal (with PBBA) ([4]; HRP 200 pg): 22,895
Signal: Background ratio ([4]; HRP 200 pg): 2.5
Signal (with PBBA) ([4]; HRP 400 pg): 38,495
Signal: Background ratio ([4]; HRP 400 pg): 4.2
Signal (with PBBA) ([4]; HRP 600 pg): 61,491
Signal: Background ratio ([4]; HRP 600 pg): 6.7
Signal (with PBBA) ([4]; HRP 800 pg): 105,972
Signal: Background ratio ([4]; HRP 800 pg): 11.6
light output of the chemiluminescent reaction ([4]; at all concentrations tested, result in words): increased the light output
SMILES: OB(O)c1ccc(Br)cc1 [PBBA, para-bromophenylboronic acid]
background level of luminescence ([3]; Column (b), result in words): reduces the background level of luminescence
